Entries after “also recorded” stand apart in the source; their conditions may differ.

What all share (format): in vivo, mouse
The subject of data set [1] is PPARα, CPT1-α, CPT2, ACAT1, FASN, SREBP1, ACC1, HSL, PLIN, ADIPOQ mRNA. In words: Q-PCR of lipid metabolism genes in liver, pancreas and adipose tissue. As to conditions: Wt and Ob/Ob mice, pancreas, adipose. The protocol:
RNA Isolation and cDNA Synthesis-Total RNA was isolated from whole pancreas and small intestine homogenates using RNeasy mini kits (Qiagen, Valencia, Calif.) and quantified using a Nano Drop 2000 spectrophotometer (Thermo Scientific, Wilmington, Del.). Total RNA (2 μg) was used to synthesize cDNA with random primers using a qScript cDNA synthesis kit (Quanta Biosciences, Gaithersburg, Md.).
Quantitative RT-PCR (Q-PCR)-Q-PCR was performed using SYBR Green PCR master mix on a Bio-Rad MyiQ2 Real Time PCR iCycler (Bio-Rad, Inc. Hercules, Calif.). Gene specific primers (Table 5) were used to amplify mRNA target genes, which were normalized to Hprt internal control genes. cDNA from 3-5 mice per experimental group was analyzed for relative mRNA fold changes, calculated using the Pfaffl method (Pfaffl M W, A new mathematical model for relative quantification in real-time RT-PCR, Nucleic Acids Res. 2001 May 1; 29(9):e45). Relative gene expression values are reported as mean±standard error of the mean (S.E.M) and P-values calculated using one-way analysis of variance followed by Bonferroni multiple comparison test post-hoc analysis.

Data set [2] can be described thus: Serum triglyceride level measurement (bichromatic assay), Example 8. As to conditions: HF diet mice (Example 8); vs control diet. From the text: (§1) Mice, diet, and drug treatment. WT male C57/BL6 male mice were maintained on either a standard laboratory chow-fed diet (CFD) with 13% kcal fat, (diet #5053, Lab Diet, Inc, St. Louis, Mo.) or a high fat, western style diet (HFD) with 60% kcals from fat, (diet #58126, Lab Diet, Inc., St. Louis, Mo.) for 4 months. One month after the start of the high fat diet treatment, the high fat diet group was further split into 2 groups for 3 months: i) high fat diet and the drinking water containing 1% DMSO; ii) high fat diet and the drinking water containing 1.5 mg/100 ml AC261066, a specific RARβ agonist. Then mice were sacrificed by cervical dislocation. Blood and various tissue samples were harvested.
Serum triglyceride level measurement. The analysis of serum triglyceride levels was carried out using a bichromatic assay at the Laboratory of Comparative Pathology of the Memorial Sloan-Kettering Cancer Center. Chow-fed diet (CFD) n=2; high fat diet (HFD) n=3; high fat diet+AC261066 (HFDAC) n=5.

For data set [3], the system named is 4-HNE, oxidative stress in the kidneys. In words: 4-HNE staining of kidney, HF-fed mice. Particulars: HF diet mice; vs high fat diet group.
Source text: as §1
4-hydroxynonenal (4-HNE) staining. Paraffin-embedded sections (from two to four mice per group) were deparaffinized and rehydrated, and antigen retrieval was performed using an antigen unmasking solution (Vector Laboratories, H-3300). After quenching endogenous peroxidase with 3% H2O2, the tissue sections were blocked with the blocking reagent (from the M.O.M. kit from Vector Laboratories). Then, tissue sections were incubated with a 4-HNE antibody (1:400; mouse monoclonal antibody; Abcam, ab48506) overnight at 4° C. The sections were then incubated with secondary antibodies (1:200, anti-mouse IgG from the M.O.M kit). […]

Another data set has as its system HF-fed C57/BL6 mice. The data set can be described thus: Metabolic studies (body weight, GTT) in HF-fed wild type mice, 4 months. As to conditions: obese HF-fed mice, 3.0 mg/100 ml drinking water. As to the method: Mice, diet, and drug treatment. Dietary Obesity Studies: Wild type (wt) male C57/BL6 male mice were maintained on either a standard laboratory chow-fed diet (Con) with 13% kcal fat, (diet #5053, Lab Diet, Inc, St. Louis, Mo.) or a high fat, western style diet (HFD) with 45% kcals from fat, (diet #58126, Lab Diet, Inc., St. Louis, Mo.) for 4 months. […]
Metabolic Measurements-Glucose tolerance was performed using an intraperitoneal glucose tolerance test (GTT) as previously described (Trasino et al., Vitamin A Deficiency Causes Hyperglycemia and Loss of Pancreatic β-Cell Mass, J Biol Chem. 2014 Dec. 1. pii: jbc.M114.616763). […] Tail vein blood glucose was measured at 20, 40, 60 and 120 minutes after injection using a FreeStyle Lite Blood Glucose Monitoring System (Abbott Diabetes Care, Inc. Alameda, Calif.). To determine insulin secretion responses to glucose, serum fractions were isolated between 0-60 minutes post glucose injections and insulin concentrations were measured using an Ultrasensitive Insulin ELISA Kit (Alpco, Inc. Salem, N.H.). Random blood glucose measurements were taken from tail veins of 4 mice per group at 2-3 random time points daily Means are expressed as±standard error of the mean (S.E.M) and P-values were calculated using one-way analysis of variance followed by Bonferroni post-hoc analysis.

For the molecule `CCCCOCCOc1nc(-c2ccc(C(=O)O)c(F)c2)sc1C` [AC261066], the “tissue expression of genes involved in lipogenesis and mitochondrial oxidation of lipids” value in data set [1] was “alters”. The serum triglyceride levels entry in data set [2] is given as “does not increase; also recorded: does not affect”. For the same molecule, the “4-HNE level (oxidative stress, ROS) in kidneys” value in data set [3] was “reduces oxidative stress; also recorded: lower”. Besides, in the data set on HF-fed C57/BL6 mice, the body weights result is “significant reductions”.
